Assay results: US8716292B2, “Riminophenazines with 2-(heteroaryl)amino substituents and their anti-microbial activity” (priority 2010, dated 2014)
≈ marks a conversion by molar mass, not a printed value.

system: Mycobacterium tuberculosis H37Rv strains; test: In vitro assay for antimicrobial susceptibility (microplate Alamar blue MIC); format: cell-based; details: Mycobacterium tuberculosis, H37RV, 7H9, Alamar blue, inhibition ≧90%; read-out: MIC (μg/mL) against H37Rv

| SMILES | MIC |
| --- | --- |
| COC1CCC(/N=c2\cc3n(-c4ccc(Cl)cc4)c4ccccc4nc-3cc2Nc2cnccn2)CC1 (stereo not shown) [TBI-1091, 5-(4-Chlorophenyl)-3-(4-methoxycyclohexyl)imino-2-(pyrazin-2-yl)amino-3,5-dihydrophenazine] | 0.018 µg/mL (≈ 0.0352 µM) |
| Fc1ccc(-n2c3c/c(=N\C4CCOCC4)c(Nc4ccccn4)cc-3nc3ccccc32)cc1 [TBI-1087, 5-(4-Fluorophenyl)-3-(4-tetrahydropyranyl)imino-2-(2-pyridyl)amino-3,5-dihydrophenazine] | 0.028 µg/mL (≈ 0.0601 µM) |

same assay, conditions: Mycobacterium tuberculosis, H37RV, in vitro, Mycobacterium tuberculosis H37Rv strains; read-out: MIC (μg/mL) against H37Rv

| SMILES | MIC |
| --- | --- |
| COc1ncccc1Nc1cc2nc3ccccc3n(-c3ccc(Br)cc3)c-2c/c1=N\C1CCC(OC)CC1 (stereo not shown) [TBI-521, 5-(4-Bromophenyl)-3-(4-methoxycyclohexyl)imino-2-(2-methoxy-3-pyridyl)amino-3,5-dihydrophenazine] | 0.031 µg/mL (≈ 0.053 µM) |
| COCC(COC)/N=c1\cc2n(-c3ccc(OC(F)(F)F)cc3)c3ccccc3nc-2cc1Nc1cccnc1OC [TBI-372] | 0.098 µg/mL (≈ 0.169 µM) |
| Clc1ccc(-n2c3c/c(=N\C4CCSCC4)c(Nc4cccnc4)cc-3nc3ccccc32)cc1 [TBI-458] | 0.018 µg/mL (≈ 0.0361 µM) |
| COc1ncccc1Nc1cc2nc3ccccc3n(-c3ccc(C)cc3)c-2c/c1=N\C1CCN(C)CC1 [TBI-313, 5-(4-Methylphenyl)-3-(N-methyl-4-piperidyl)imino-2-(2-methoxy-3-pyridyl)amino-3,5-dihydrophenazine] | 0.016 µg/mL (≈ 0.0317 µM) |
| Cc1ccc(-n2c3c/c(=N\C(C)C)c(Nc4cccnc4C)cc-3nc3ccccc32)cc1 [TBI-321, 5-(4-Methylphenyl)-3-(1-methylethyl)imino-2-(2-methyl-3-pyridyl)amino-3,5-dihydrophenazine] | 0.419 µg/mL (≈ 0.966 µM) |
| COc1ncccc1Nc1cc2nc3ccccc3n(-c3ccc(Br)cc3)c-2c/c1=N\C1CCCCC1 [TBI-517, 5-(4-Bromophenyl)-3-cyclohexylimino-2-(2-methoxy-3-pyridyl)amino-3,5-dihydrophenazine] | 0.029 µg/mL (≈ 0.0523 µM) |
| Cc1cncc(Nc2cc3nc4ccccc4n(-c4ccc(F)cc4)c-3c/c2=N\C2CCCCC2)c1 [TBI-1029, 5-(4-Fluorophenyl)-3-cyclohexylimino-2-(5-methyl-3-pyridyl)amino-3,5-dihydrophenazine] | 0.027 µg/mL (≈ 0.0565 µM) |
| COc1ncccc1Nc1cc2nc3ccccc3n(-c3ccc(Cl)cc3)c-2c/c1=N\CCN1CCOCC1 [TBI-439, 5-(4-Chlorophenyl)-3-(2-morpholinoethyl)imino-2-(2-methoxy-3-pyridyl)amino-3,5-dihydrophenazine] | 0.06 µg/mL (≈ 0.111 µM) |
| CN1CCC(/N=c2\cc3n(-c4ccc(C(F)(F)F)cc4)c4ccccc4nc-3cc2Nc2cccnc2)CC1 [TBI-689, 5-(4-Trifluoromethylphenyl)-3-(N-methyl-4-piperidyl)imino-2-(3-pyridyl)amino-3,5-dihydrophenazine] | 0.125 µg/mL (≈ 0.236 µM) |
| COc1ncccc1Nc1cc2nc3ccc(F)cc3n(-c3ccc(Cl)c(Cl)c3)c-2c/c1=N\C1CCOCC1 [TBI-884, 7-Fluoro-5-(3,4-dichlorophenyl)-3-(4-tetrahydropyranyl)imino-2-(2-methoxy-3-pyridyl)amino-3,5-dihydrophenazine] | 0.5 µg/mL (≈ 0.886 µM) |
| COc1ncccc1Nc1cc2nc3ccc(F)cc3n(-c3ccc(Cl)c(Cl)c3)c-2c/c1=N\C(C)C [TBI-899, 7-Fluoro-5-(3,4-dichlorophenyl)-3-(1-methylethyl)imino-2-(2-methoxy-3-pyridyl)amino-3,5-dihydrophenazine] | 0.125 µg/mL (≈ 0.239 µM) |
| Cc1ncccc1Nc1cc2nc3ccccc3n(-c3ccc(C(F)(F)F)cc3)c-2c/c1=N\C1CCC(O)CC1 (stereo not shown) [TBI-709, 5-(4-Trifluoromethylphenyl)-3-(4-hydroxycyclohexyl)imino-2-(2-methyl-3-pyridyl)amino-3,5-dihydrophenazine] | 0.108 µg/mL (≈ 0.199 µM) |
| COc1ncccc1Nc1cc2nc3cc(F)ccc3n(-c3ccc(Cl)cc3)c-2c/c1=N\C1CCC(OC)CC1 (stereo not shown) [TBI-936, 8-Fluoro-5-(4-chlorophenyl)-3-(4-methoxycyclohexyl)imino-2-(2-methoxy-3-pyridyl)amino-3,5-dihydrophenazine] | 0.06 µg/mL (≈ 0.108 µM) |
| COc1ncccc1Nc1cc2nc3ccccc3n(-c3ccccc3)c-2c/c1=N\C1CCC(O)CC1 (stereo not shown) [TBI-087, 5-Phenyl-3-(4-hydroxycyclohexyl)imino-2-(2-methoxy-3-pyridyl)amino-3,5-dihydrophenazine] | 0.466 µg/mL (≈ 0.948 µM) |
| CN1CCC(/N=c2\cc3n(-c4ccc(F)cc4)c4ccccc4nc-3cc2Nc2cccnc2)CC1 [TBI-682] | 0.25 µg/mL (≈ 0.522 µM) |
| COc1ncccc1Nc1cc2nc3ccc(F)cc3n(-c3ccc(Cl)cc3)c-2c/c1=N\C1CCC(OC)CC1 (stereo not shown) [TBI-924] | 0.06 µg/mL (≈ 0.108 µM) |
| COc1ncccc1Nc1cc2nc3ccc(F)cc3n(-c3ccc(Cl)cc3)c-2c/c1=N\C1CCCCC1 [TBI-927, 7-Fluoro-5-(4-chlorophenyl)-3-cyclohexylimino-2-(2-methoxy-3-pyridyl)amino-3,5-dihydrophenazine] | 0.04 µg/mL (≈ 0.0758 µM) |
| COc1ncccc1Nc1cc2nc3cc(F)ccc3n(-c3ccc(OC(F)(F)F)cc3)c-2c/c1=N\C1CCCCC1 [TBI-862, 8-Fluoro-5-(4-trifluoromethoxyphenyl)-3-cyclohexylimino-2-(2-methoxy-3-pyridyl)amino-3,5-dihydrophenazine] | 0.088 µg/mL (≈ 0.152 µM) |
| Cc1cncc(Nc2cc3nc4ccccc4n(-c4ccccc4)c-3c/c2=N\C2CC2)c1 [TBI-096, 5-Phenyl-3-cyclopropylimino-2-(5-methyl-3-pyridyl)amino-3,5-dihydrophenazine] | 0.069 µg/mL (≈ 0.165 µM) |

| SMILES | MIC |
| --- | --- |
| Fc1ccc(-n2c3c/c(=N\C4CC4)c(Nc4cccnc4)cc-3nc3ccccc32)cc1 [TBI-922, 5-(4-Fluorophenyl)-3-cyclopropylimino-2-(3-pyridyl)amino-3,5-dihydrophenazine] | 0.012 µg/mL (≈ 0.0285 µM) |
| CC(=O)Nc1ccc(Nc2cc3nc4ccccc4n(-c4ccc(F)cc4)c-3c/c2=N\C2CCN(C)CC2)cn1 [TBI-912, 5-(4-Fluorophenyl)-3-(N-methyl-4-piperidyl)imino-2-(6-acetamino-3-pyridyl)amino-3,5-dihydrophenazine] | 0.351 µg/mL (≈ 0.655 µM) |
| CC(=O)Nc1ccc(Nc2cc3nc4ccccc4n(-c4ccc(C(F)(F)F)cc4)c-3c/c2=N\C2CCOCC2)cn1 [TBI-712, 5-(4-Trifluoromethylphenyl)-3-(4-tetrahydropyranyl)imino-2-(6-acetamino-3-pyridyl)amino-3,5-dihydrophenazine] | 0.158 µg/mL (≈ 0.276 µM) |
| Cc1ccc(Nc2cc3nc4ccccc4n(-c4ccc(F)cc4)c-3c/c2=N\C2CCC2)cn1 [TBI-1017] | 0.056 µg/mL (≈ 0.125 µM) |
| COc1ncccc1Nc1cc2nc3ccccc3n(-c3ccc(F)cc3)c-2c/c1=N\C1CCN(C)CC1 [TBI-1005, 5-(4-Fluorophenyl)-3-(N-methyl-4-piperidyl)imino-2-(2-methoxy-3-pyridyl)amino-3,5-dihydrophenazine] | 0.213 µg/mL (≈ 0.419 µM) |
| Cc1ccc(-n2c3c/c(=N\C4CCOCC4)c(Nc4cncc(C)c4)cc-3nc3ccccc32)cc1 [TBI-328, 5-(4-Methylphenyl)-3-(4-tetrahydropyranyl)imino-2-(5-methyl-3-pyridyl)amino-3,5-dihydrophenazine] | 0.037 µg/mL (≈ 0.0778 µM) |
| FC(F)(F)c1ccc(-n2c3c/c(=N\C4CCOCC4)c(Nc4cccnc4)cc-3nc3ccccc32)cc1 [TBI-686, 5-(4-Trifluoromethylphenyl)-3-(4-tetrahydropyranyl)imino-2-(3-pyridyl)amino-3,5-dihydrophenazine] | 0.125 µg/mL (≈ 0.242 µM) |
| COc1ccc(Nc2cc3nc4ccccc4n(-c4ccccc4)c-3c/c2=N\C2CCOCC2)cn1 [TBI-515, 5-Phenyl-3-(4-tetrahydropyranyl)imino-2-(6-methoxy-3-pyridyl)amino-3,5-dihydrophenazine] | 0.233 µg/mL (≈ 0.488 µM) |
| CC(C)/N=c1\cc2n(-c3ccc([S+](C)[O-])cc3)c3ccccc3nc-2cc1Nc1cccnc1 (stereo not shown) [TBI-457, 5-(4-Methylsulfinylphenyl)-3-(1-methylethyl)imino-2-(3-pyridyl)amino-3,5-dihydrophenazine] | 0.469 µg/mL (≈ 1 µM) |
| Cc1ccc(Nc2cc3nc4ccccc4n(-c4ccccc4)c-3c/c2=N\C2CCC(O)CC2)cn1 (stereo not shown) [TBI-086] | 0.5 µg/mL (≈ 1.05 µM) |
| CC(=O)Nc1ccc(Nc2cc3nc4ccccc4n(-c4ccc(C(F)(F)F)cc4)c-3c/c2=N\C(C)C)cn1 [TBI-711, 5-(4-Trifluoromethylphenyl)-3-(1-methylethyl)imino-2-(6-acetamino-3-pyridyl)amino-3,5-dihydrophenazine] | 0.11 µg/mL (≈ 0.207 µM) |
| COc1ncccc1Nc1cc2nc3ccccc3n(-c3ccc(Cl)c(Cl)c3)c-2c/c1=N\C1CCOCC1 [TBI-361, 5-(3,4-Dichlorophenyl)-3-(4-tetrahydropyranyl)imino-2-(2-methoxy-3-pyridyl)amino-3,5-dihydrophenazine] | 0.08 µg/mL (≈ 0.146 µM) |
| Clc1ccccc1-n1c2c/c(=N\C3CCCCC3)c(Nc3cccnc3)cc-2nc2ccccc21 [TBI-891, 5-(2-Chlorophenyl)-3-cyclohexylimino-2-(3-pyridyl)amino-3,5-dihydrophenazine] | 0.036 µg/mL (≈ 0.075 µM) |
| Cc1ccc(Nc2cc3nc4ccccc4n(-c4ccc(Br)cc4)c-3c/c2=N\C(C)C)cn1 [TBI-099, 5-(4-Bromophenyl)-3-(1-methylethyl)imino-2-(6-methyl-3-pyridyl)amino-3,5-dihydrophenazine] | 0.049 µg/mL (≈ 0.0983 µM) |
| COCC(C/N=c1\cc2n(-c3cccc(Cl)c3)c3ccccc3nc-2cc1Nc1cccnc1OC)OC (stereo not shown) [TBI-826, 5-(3-Chlorophenyl)-3-(2,3-dimethoxy-1-propyl)imino-2-(2-methoxy-3-pyridyl)amino-3,5-dihydrophenazine] | 0.125 µg/mL (≈ 0.236 µM) |
| COc1ccc(Nc2cc3nc4ccccc4n(-c4ccccc4)c-3c/c2=N\C2CCCCC2)cn1 [TBI-513, 5-Phenyl-3-cyclohexylimino-2-(6-methoxy-3-pyridyl)amino-3,5-dihydrophenazine] | 0.244 µg/mL (≈ 0.513 µM) |
| COc1ncccc1Nc1cc2nc3ccccc3n(-c3cccc(Cl)c3)c-2c/c1=N\C1CCC1 [TBI-824, 5-(3-Chlorophenyl)-3-cyclobutylimino-2-(2-methoxy-3-pyridyl)amino-3,5-dihydrophenazine] | 0.06 µg/mL (≈ 0.124 µM) |
| COc1ncccc1Nc1cc2nc3ccccc3n(-c3ccccc3)c-2c/c1=N\C1CCC1 [TBI-505, 5-Phenyl-3-cyclobutylimino-2-(2-methoxy-3-pyridyl)amino-3,5-dihydrophenazine] | 0.043 µg/mL (≈ 0.0961 µM) |
| Cc1ccc(-n2c3c/c(=N\C4CCC4)c(Nc4ccc(C)nc4)cc-3nc3ccccc32)cc1 [TBI-346, 5-(4-Methylphenyl)-3-cyclobutylimino-2-(6-methyl-3-pyridyl)amino-3,5-dihydrophenazine] | 0.058 µg/mL (≈ 0.13 µM) |
